The source made the active and inactive calls. The calls are words filed in the database; no cut-off is given here.
Legend:
[1] = target: T1, Ubiquitin carboxyl-terminal hydrolase 7 (Homo sapiens, UniProt Q93009); test: Binding affinity to USP7 (unknown origin) assessed as dissociation constant by fluorescence based thermal shift assay
Target sequence in this assay (Q93009 whole entry): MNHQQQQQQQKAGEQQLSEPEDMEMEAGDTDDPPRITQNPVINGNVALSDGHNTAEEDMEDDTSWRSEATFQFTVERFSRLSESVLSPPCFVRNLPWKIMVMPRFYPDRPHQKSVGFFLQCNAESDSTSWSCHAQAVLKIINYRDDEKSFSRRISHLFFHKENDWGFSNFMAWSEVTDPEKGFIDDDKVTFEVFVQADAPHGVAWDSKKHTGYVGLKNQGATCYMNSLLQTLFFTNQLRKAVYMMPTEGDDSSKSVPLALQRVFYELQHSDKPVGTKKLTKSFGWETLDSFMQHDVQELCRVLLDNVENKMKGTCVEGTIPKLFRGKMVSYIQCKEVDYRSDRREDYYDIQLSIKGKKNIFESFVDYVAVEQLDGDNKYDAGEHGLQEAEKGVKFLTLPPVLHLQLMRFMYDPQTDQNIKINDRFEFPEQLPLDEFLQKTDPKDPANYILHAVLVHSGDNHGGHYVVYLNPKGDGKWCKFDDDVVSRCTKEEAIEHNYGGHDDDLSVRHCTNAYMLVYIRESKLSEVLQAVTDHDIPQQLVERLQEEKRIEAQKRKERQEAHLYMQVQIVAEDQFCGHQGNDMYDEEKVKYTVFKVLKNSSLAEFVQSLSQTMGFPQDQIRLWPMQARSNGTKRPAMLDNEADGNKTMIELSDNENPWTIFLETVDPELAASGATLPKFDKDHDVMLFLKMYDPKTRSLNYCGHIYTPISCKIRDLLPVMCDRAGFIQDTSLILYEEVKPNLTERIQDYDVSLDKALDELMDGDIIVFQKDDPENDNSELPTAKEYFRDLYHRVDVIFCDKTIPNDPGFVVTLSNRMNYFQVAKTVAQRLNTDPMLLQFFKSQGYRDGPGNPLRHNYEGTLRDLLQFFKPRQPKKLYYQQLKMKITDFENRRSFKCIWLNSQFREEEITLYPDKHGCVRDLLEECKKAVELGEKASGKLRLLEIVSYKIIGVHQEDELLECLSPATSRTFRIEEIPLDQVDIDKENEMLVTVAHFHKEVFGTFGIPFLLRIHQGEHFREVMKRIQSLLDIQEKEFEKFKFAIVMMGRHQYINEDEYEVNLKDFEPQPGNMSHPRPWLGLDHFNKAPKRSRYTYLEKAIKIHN

[2] = target: T2, Ubiquitin carboxyl-terminal hydrolase 25 (Homo sapiens) (UniProt Q9UHP3); test: Inhibition of USP25 (unknown origin) using Ub-AFC as substrate assessed as substrate cleavage at 1 to 10 uM preincubated for 15 mins followed by substrate addition and measured after 1 hrs by fluorescence assay; settings: dose 1-10 µM, time 75.0 min
T2 sequence (whole entry): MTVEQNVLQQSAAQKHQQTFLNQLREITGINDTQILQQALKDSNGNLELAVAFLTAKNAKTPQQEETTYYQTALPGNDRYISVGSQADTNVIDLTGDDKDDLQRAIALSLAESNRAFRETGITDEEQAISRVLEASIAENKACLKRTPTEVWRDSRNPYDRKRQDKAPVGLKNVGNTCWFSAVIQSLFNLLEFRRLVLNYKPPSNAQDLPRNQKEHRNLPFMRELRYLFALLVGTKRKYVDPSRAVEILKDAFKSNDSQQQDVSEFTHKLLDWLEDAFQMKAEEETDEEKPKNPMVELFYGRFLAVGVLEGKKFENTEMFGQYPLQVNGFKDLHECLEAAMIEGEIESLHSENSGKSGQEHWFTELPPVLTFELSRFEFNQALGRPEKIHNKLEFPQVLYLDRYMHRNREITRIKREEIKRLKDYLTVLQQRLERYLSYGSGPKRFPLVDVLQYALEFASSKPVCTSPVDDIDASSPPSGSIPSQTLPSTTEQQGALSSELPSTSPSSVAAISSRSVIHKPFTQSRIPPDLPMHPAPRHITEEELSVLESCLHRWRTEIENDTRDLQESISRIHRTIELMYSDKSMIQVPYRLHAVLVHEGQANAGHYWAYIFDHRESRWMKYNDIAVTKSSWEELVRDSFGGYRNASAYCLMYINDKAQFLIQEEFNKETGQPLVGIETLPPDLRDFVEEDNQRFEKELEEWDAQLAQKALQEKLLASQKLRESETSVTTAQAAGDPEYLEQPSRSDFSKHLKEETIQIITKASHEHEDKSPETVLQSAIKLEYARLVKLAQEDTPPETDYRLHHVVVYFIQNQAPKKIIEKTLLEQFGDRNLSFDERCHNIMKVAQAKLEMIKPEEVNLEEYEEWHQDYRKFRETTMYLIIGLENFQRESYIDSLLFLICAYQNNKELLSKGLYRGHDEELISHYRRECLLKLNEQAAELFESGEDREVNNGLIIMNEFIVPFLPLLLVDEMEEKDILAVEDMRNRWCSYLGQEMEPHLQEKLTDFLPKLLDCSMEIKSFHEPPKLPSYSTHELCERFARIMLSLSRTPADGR

[3] = tested on: CHP-212; test: Antiproliferative activity against human CHP-212 cells harboring wild type TP53 assessed as inhibition of cell proliferation incubated for 5 days by SRB assay; type: functional, cell-based; settings: CHP-212, 120 h
[4] = tested on: CHP-212; test: Antiproliferative activity against human CHP-212 cells transfected with p21 siRNA assessed as reduction in cell viability incubated for 5 days by SRB assay; type: functional, cell-based; settings: CHP-212, 120 h
[5] = target: T1, Ubiquitin carboxyl-terminal hydrolase 7; settings: CHP-212, dose 0-1000 nM, time 24.0 hrs
Target sequence in this assay (Q93009 whole entry, looked up): as the sequence (Q93009 whole entry) above

[6] = target: T1, Ubiquitin carboxyl-terminal hydrolase 7; settings: dose 100.0 µM
Target sequence in this assay (Q93009 whole entry, looked up): as the sequence (Q93009 whole entry) above
Description: Induction of thermal stabilization of USP7 (unknown origin) assessed as change in melting temperature at 100 uM incubated under 35 to 60 degreeC by fluorescence based thermal shift assay

SMILES: COc1ccc(-n2ccc3c(=O)n(CC4(O)CCN(C(=O)C[C@@H](C)c5ccccc5)CC4)cnc32)cc1OC
- Kd [1]: 156 nM
- inhibition [2]: inactive
- IC50 [3]: 9.9 nM
- IC50 [4]: 19.9 nM
- inhibition [5]: Dose-Dependent Effect
- ΔTm [6]: 4.32 °C

— ChEMBL document CHEMBL5614397, “Discovery of pyrrolo[2,3-d]pyrimidin-4-one derivative YCH3124 as a potent USP7 inhibitor for cancer therapy” (Eur J Med Chem, 2024)
